In general, IC50 refers to the concentration at which inhibition is half-maximal. In general, EC50 refers to the concentration giving half of the maximal effect.

T1 sequence (P41279 30-397): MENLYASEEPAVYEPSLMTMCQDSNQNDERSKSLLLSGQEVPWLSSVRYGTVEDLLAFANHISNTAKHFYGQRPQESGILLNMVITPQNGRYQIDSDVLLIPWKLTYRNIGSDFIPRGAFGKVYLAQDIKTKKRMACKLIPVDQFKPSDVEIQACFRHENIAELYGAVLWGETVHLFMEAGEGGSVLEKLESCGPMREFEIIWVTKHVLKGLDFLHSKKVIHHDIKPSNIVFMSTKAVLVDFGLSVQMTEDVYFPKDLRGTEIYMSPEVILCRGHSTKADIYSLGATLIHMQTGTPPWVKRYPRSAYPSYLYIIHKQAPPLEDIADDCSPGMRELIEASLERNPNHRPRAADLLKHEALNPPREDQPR

One test addresses T1, human Cot catalytic domain (30-397 amino acids) (Homo sapiens, UniProt P41279).
T1 construct: Purified recombinant human Cot catalytic domain (30-397 amino acids) was purchased from Cama Biosciences; purchased Cama Biosciences (so in the source)
In words: High Throughput Cot Biochemical Assay (KinEASE TR-FRET). Conditions: Cot KinEASE TR-FRET, 400 μM ATP; read-out: IC50 HTRF. A digest of the protocol:
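First, purified human Cot (aa 30-397) at 5 nM phosphorylates an XL665-labeled STK3 peptide (1 μM) at 400 μM ATP, pH 7.0, 0.1% DMSO. Then a europium-conjugated phospho-specific antibody binds the product, giving the TR-FRET signal.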
(In general: Time-resolved FRET reads energy transfer from a long-lived donor to a nearby acceptor.)
For the compound `N#Cc1cnc2c(Cl)cc(N[C@H](c3ccc(Cl)cc3)c3cn(C4CCNCC4)nn3)cc2c1Nc1ccc(F)c(Cl)c1` [Example 857, (R)-8-chloro-4-((3-chloro-4-fluorophenyl)amino)-6-(((4-chlorophenyl)(1-(piperidin-4-yl)-1H-1,2,3-triazol-4-yl)methyl)amino)quinoline-3-carbonitrile], the IC50 came out at 1340 nM. As for `N#Cc1cnc2c(Cl)cc(NC(c3ccc(Cl)cc3)c3cn([C@H]4CCN(C(=O)OCc5ccccc5)C4)nn3)cc2c1Nc1ccc(F)c(Cl)c1` (stereo partly drawn) [Example 878, benzyl (3S)-3-(4-(((8-chloro-4-((3-chloro-4-fluorophenyl)amino)-3-cyanoquinolin-6-yl)amino)(4-chlorophenyl)methyl)-1H-1,2,3-triazol-1-yl)pyrrolidine-1-carboxylate], the IC50 stood at 7700 nM.

Consider `N#Cc1cnc2c(Cl)cc(N[C@@H](c3ccc(F)cc3)c3cn(C4CCN(CC(F)F)CC4)nn3)cc2c1Nc1ccc(F)c(Cl)c1` [Example 823, (S)-8-chloro-4-((3-chloro-4-fluorophenyl)amino)-6-(((1-(1-(2,2-difluoroethyl)piperidin-4-yl)-1H-1,2,3-triazol-4-yl)(4-fluorophenyl)methyl)amino) quinoline-3-carbonitrile], for which the half-inhibitory concentration (IC50) is 97 nM.

In the case of `N#Cc1cnc2c(Cl)cc(NC(c3ccc(F)cc3)c3cn(C4CCOCC4)nn3)cc2c1Nc1ccc(F)c(Cl)c1` (stereo not drawn) [Example 843, 8-chloro-4-((3-chloro-4-fluorophenyl)amino)-6-(((4-fluorophenyl)(1-(tetrahydro-2H-pyran-4-yl)-1H-1,2,3-triazol-4-yl)methyl)amino)quinoline-3-carbonitrile], the 50% inhibitory concentration (IC50) came to 58 nM.

As to `CCN1CC[C@@H](n2cc(C(Nc3cc(Cl)c4ncc(C#N)c(Nc5ccc(F)c(Cl)c5)c4c3)c3ccc(F)cc3)nn2)C1` (stereo partly drawn) [Example 865, 8-chloro-4-((3-chloro-4-fluorophenyl)amino)-6-(((1-((R)-1-ethylpyrrolidin-3-yl)-1H-1,2,3-triazol-4-yl)(4-fluorophenyl)methyl)amino) quinoline-3-carbonitrile], the IC50 stood at 46 nM. Take `Cc1ccc(C(Nc2cc(Cl)c3ncc(C#N)c(Nc4ccc(F)c(Cl)c4)c3c2)c2cn(C3CCNCC3)nn2)cc1` (stereo not drawn) [Example 916, 8-chloro-4-((3-chloro-4-fluorophenyl)amino)-6-(((1-(piperidin-4-yl)-1H-1,2,3-triazol-4-yl)(p-tolyl)methyl)amino) quinoline-3-carbonitrile]: the concentration for half-maximal inhibition (IC50) was found to be 48 nM. For `CN(C)Cc1ccc([C@H](Nc2cc(Cl)c3ncc(C#N)c(Nc4ccc(F)c(Cl)c4)c3c2)c2cn(C3CCN(C(C)(C)C)CC3)nn2)cc1` [Example 735, (S)-6-(((1-(1-(tert-butyl)piperidin-4-yl)-1H-1,2,3-triazol-4-yl)(4-((dimethylamino)methyl)phenyl)methyl)amino)-8-chloro-4-((3-chloro-4-fluorophenyl)amino)quinoline-3-carbonitrile], the half-inhibitory concentration (IC50) came out at 105 nM. Same read-out and setting: as for `CN(C)C(=O)N1CCC[C@@H]1Cn1cc(C(Nc2cc(Cl)c3ncc(C#N)c(Nc4ccc(F)c(Cl)c4)c3c2)c2ccc(F)cc2)nn1` (stereo partly drawn) [Example 818, (2R)-2-((4-(((8-chloro-4-((3-chloro-4-fluorophenyl)amino)-3-cyanoquinolin-6-yl)amino)(4-fluorophenyl)methyl)-1H-1,2,3-triazol-1-yl)methyl)-N,N-dimethylpyrrolidine-1-carboxamide], the figure is 447 nM. Same read-out and setting: the same measure for `CC(C)(C)N1CCC(n2cc([C@@H](Nc3cc(Cl)c4ncc(C#N)c(Nc5ccc(C#N)c(Cl)c5)c4c3)c3ccc(Cl)cc3)nn2)CC1` [Example 770, (S)-6-(((1-(1-(tert-butyl)piperidin-4-yl)-1H-1,2,3-triazol-4-yl)(4-chlorophenyl)methyl)amino)-8-chloro-4-((3-chloro-4-cyanophenyl)amino)quinoline-3-carbonitrile]: 60 nM; for `N#Cc1cnc2c(Cl)cc(NC(c3ccc(F)cc3)c3cn(C4CCNCC4)nn3)cc2c1Nc1ccc(F)c(Cl)c1` (stereo not drawn) [Example 886, 8-chloro-4-((3-chloro-4-fluorophenyl)amino)-6-(((4-fluorophenyl)(1-(piperidin-4-yl)-1H-1,2,3-triazol-4-yl)methyl)amino)quinoline-3-carbonitrile]: 11 nM.

The next test concerns TNFα production in LPS-stimulated human monocytes. Put plainly: Cot Monocyte TNFα Cell Based Assay. As to conditions: Homo sapiens, Monocyte, LPS-stimulated human monocytes, TNFα TR-FRET; read-out: EC50 TNF. The protocol: Example 60: Cot Monocyte TNFα Cell Based Assay
The cell suspension was then plated at a density of 5,000 cells/well onto black 384 well Greiner clear bottom plates. Plates were pre-spotted with test compounds and serially diluted in DMSO where 200 nL/well were delivered using the Echo 550 acoustic liquid dispenser (Labcyte®) for a final DMSO concentration of 0.5%. Plated cells were treated with compound for 1 hour at 37° C. Cells were then stimulated with 50 pg/ml of LPS (Sigma) excluding outside columns of plate used for unstimulated cell control wells. Cells were incubated for an additional 4 hours at 37° C. Cells were then spun out of the media and 5 ul of sample were taken and analyzed for total TNFα content using the TR-FRET Human TNFα detection system (CisBio). This system utilizes two labeled antibodies (cryptate and XL665) that bind to two different epitopes of the TNFα molecule and produce FRET signal proportional to the concentration of TNFα in the sample. Detection antibodies are mixed 50:50 and 5 μL were dispensed into each well. Plates were covered with clear seals and incubated at room temp overnight. […] Percent of control was calculated as follows: % Control=100×(RatioSample−Ratio0% stimulation)/(Ratio100% Stimulation−Ratio0% Stimulation) where unstimulated cells (0% stimulation) were the negative control and stimulated cells (100% stimulation) were used as the positive control.
On to `Cc1cc(C#N)ccc1[C@H](Nc1cc(Cl)c2ncc(C#N)c(NCC(C)(C)C)c2c1)c1cn(C2(C(F)(F)F)CC2)nn1` [Example 1099, (S)-8-chloro-6-(((4-cyano-2-methylphenyl)(1-(1-(trifluoromethyl)cyclopropyl)-1H-1,2,3-triazol-4-yl)methyl)amino)-4-(neopentylamino)quinoline-3-carbonitrile], for which the EC50 was found to be 188 nM.

As to `CC(C)(C)CNc1c(C#N)cnc2c(Cl)cc(N[C@@H](c3ccccc3)c3cn(C4(C(F)F)CC4)nn3)cc12` [Example 1058, (S)-8-chloro-6-(((1-(1-(difluoromethyl)cyclopropyl)-1H-1,2,3-triazo1-4-yl)(phenyl)methyl)amino)-4-(neopentylamino)quinoline-3-carbonitrile], the EC50 was found to be 314 nM.

Staying with this test, now noted: Homo sapiens, Monocyte, TNFα in LPS-stimulated human monocytes; read-out: EC50 TNF.
For the compound `CC[C@@H](Nc1c(C#N)cnc2c(Cl)cc(N[C@@H](c3ccc(F)cc3)c3cn(-c4ccccc4)nn3)cc12)c1ccccc1` [Example 392, 8-chloro-6-(((S)-(4-fluorophenyl)(1-phenyl-1H-1,2,3-triazol-4-yl)methyl)amino)-4-(((R)-1-phenylpropyl)amino)quinoline-3-carbonitrile], the EC50 turned out to be 308 nM. The same measure, in the same setting: the same measure for `N#Cc1cnc2c(Cl)cc(N[C@@H](c3ccccc3)c3c[nH]nn3)cc2c1Nc1cnc(F)c(F)c1` [Example 582, (S)-8-chloro-4-((5,6-difluoropyridin-3-yl)amino)-6-((phenyl(1H-1,2,3-triazol-4-yl)methyl)amino)quinoline-3-carbonitrile]: 734 nM. On the same count and under the same terms, as for `[2H][C@](Nc1cc(Cl)c2ncc(C#N)c(NCC3(CC)CCC3)c2c1)(c1ccc(F)cc1)c1cn(C2CC2)nn1` [Example 261, (S)-8-chloro-6-(((1-cyclopropyl-1H-1,2,3-triazol-4-yl)(4-fluorophenyl)methyl-d)amino)-4-(((1-ethylcyclobutyl)methyl)amino)quinoline-3-carbonitrile], the figure is 504 nM; as for `CC(C)(C)N1CCC(n2cc([C@@H](Nc3cc(Cl)c4ncc(C#N)c(Nc5cccc(Cl)c5)c4c3)c3ccc(Cl)cc3)nn2)CC1` [Example 776, (S)-6-(((1-(1-(tert-butyl)piperidin-4-yl)-1H-1,2,3-triazol-4-yl)(4-chlorophenyl)methyl)amino)-8-chloro-4-((3-chlorophenyl)amino)quinoline-3-carbonitrile], 1240 nM.

Still in this test, the particulars now being: Homo sapiens, Monocyte, read-out: EC50 TNF.
Consider `[2H][C@](Nc1cc(Cl)c2ncc(C#N)c(NC3CN4CCC3CC4)c2c1)(c1ccc(F)cc1)c1cn(C2CC2)nn1` (stereo partly drawn) [Example 317, 8-chloro-6-(((S)-(1-cyclopropyl-1H-1,2,3-triazol-4-yl)(4-fluorophenyl)methyl-d)amino)-4-(quinuclidin-3-ylamino)quinoline-3-carbonitrile], for which the EC50 turned out to be 8260 nM.

Still in this test, the particulars now being: LPS-stimulated human monocytes, TNFα TR-FRET; read-out: EC50 TNF.
For the compound `CC(C)(C)CNc1c(C#N)cnc2c(Cl)cc(NC(c3cn(C4(CO)CC4)nn3)c3ccccc3Cl)cc12` (stereo not drawn) [Example 964, 8-chloro-6-(((2-chlorophenyl) (1-(1-(hydroxymethyl)cyclopropyl)-1H-1,2,3-triazo1-4-yl)methyl-d)amino)-4-(neopentylamino)quinoline-3-carbonitrile], the EC50 stood at 254 nM.

The record behind these values is patent US10316017B2, “COT modulators and methods of use thereof” (Gilead Sciences, Inc., priority 2015, dated 2019).
